SMILES strings stand for the structures.

In one assay the test system is M-NFS-60 cells. Nature of the assay: M-NFS-60 cell in vitro assay (CCK, 48 h, M-CSF factor medium). The format is cell-based. As to conditions: M-NFS-60 cells; read-out: M-NFS-60cellassay IC50. The method, then: To determine the inhibitory activity of compounds on M-NFS-60 cells.
• M-NFS-60 cell line (ATCC, Cat. No.: CRL-1838) • RPMI-1640 medium (Gibco, domestic subpackage, Cat. No.: C11875500BT) • Recombinant Mouse CSF1/M-CSF (Sino Biological Inc., Cat. No.: 51112-MNAH) • PAN/Serum (BioTECH, Cat. No.: P30-2602) • Trypsin/0.05% Trypsin-EDTA (Gibco, Cat. No.: 25300-062) • 0.4% Trypan Blue (Sigma, Cat. No.: T8154-20 ml) • Penicillin-Streptomycin (Hyclone, Cat. No.: SV30010) • DMSO (Solarbio, Cat. No.: D8371) • PBS (Solarbio, Cat. No.: P1020) • CCK (AbMole BioScience, Cat. No.: M4839-500Tests)
• 1) M-CSF factor stock solution: take 10 μg of powdered m-CSF factor, add 0.4 ml of saline, formulate 25 ug/ml and store at −80° C. • 2) M-CSF factor (25 ng/ml) medium: • 1640 (Gibco)+10% PAN+100×Penicillin-Streptomycin+100×M-CSF stock solution • 3) Complete medium: • 1640 (Gibco)+10% PAN+100×Penicillin-Streptomycin • 4) Compound preparation: 2-3 mg of the compound was added to DMSO to formulate a 30 mM stock solution, −80° C. refrigerator storage
• 1) Cell resuscitation: the frozen cells in the cryovial were thawed rapidly by shaking in a 37° C. water bath, then 4 mL of medium was added. After mixing evenly, they were centrifuged at 125×g for 5 min, and the supernatant was discarded. The cells were resuspended and transferred to the culture flasks, and were cultured in a 5% CO2 fully saturated humidity incubator. • 2) Cell passaging: M-NFS-60 cells are semi-suspension cells, which were collected directly in a 15 mL centrifuge tube, centrifuged at 125×g for 5 min. and the supernatant was discarded. The cells were resuspended and passaged into new culture flasks at a ratio of 1:5 to 1:10. • 3) After the newly resuscitated cells were passaged 1-2 times for cell stabilization, compound inhibition assays were started when the cells were in the logarithmic growth phase. • (a) Cell collection and counting: the same as the cell passaging step, centrifuge in two tubes, one tube with M-CSF factor medium to resuspend the cells, the other tube with complete medium to resuspend the cells. Take 10 μL of cell suspension in each tube, and count the cells by Tepan blue staining. • (b) Dilute the cell solution according to the concentration of inoculated cells respectively, the concentration of M-NFS-60 cells inoculated with factor was 5.56×10^4 cells/mL, and the concentration of inoculated without factor was 5×10^4 cells/mL. • (c) Seed plate: 384 well plate inoculated with M-NFS-60 cells, 36 uL/well, triplicate wells, the number of inoculated cells was equivalent to 2000 cells/well, set with blank control, factor free negative control, normal control, DMSO control and experimental wells. The cells were placed in a 5% CO2 fully saturated humidity incubator for 4 h. • (d) Sampling compounds: 96 well plates were used for compound preparation. The compound solution prepared in advance was diluted to corresponding gradient concentration with DMSO. An appropriate amount of the diluted solution in the previous step was added to an equal volume of factor containing medium. The 96 well plates were centrifuged at 1000 rpm for 5 min, which played the role of defoaming and spinning down droplets and condensation. Remove the 384 well plate from the incubator, add the diluted compound solution into each well sequentially, 4 μL/well; DMSO wells and normal wells were added with corresponding factor containing medium, 4 μL/well. Then it was put into CO2 incubator for 48 h. • (e) After incubation for 48 h, CCK was added to each well, 4 uL, and the plates were placed in the incubator for another 2 h, and then the OD (optical density) value at 450 nm was measured by microplate reader.
The IC50 values for each test compound were fitted using professional graphing and analysis software.
The IC50 is the concentration that inhibits the measured activity by half. Consider `Cn1cc(-c2cncc(N[C@@H]3CCc4c(NC(=O)c5cccc(C(F)(F)F)c5F)cccc43)n2)cn1` [Compound 25d], for which the IC50 was above 500 nM.
The same measure, in the same setting: next, `CN1CCN(c2cccc(C(=O)Nc3cccc4c3CC[C@@H]4Nc3cncc(-c4cnn(C)c4)n3)c2)CC1` [Compound 25e]: 50 to 200 nM.
Regarding `CN1CCN(Cc2ccc(C(=O)Nc3cccc4c3CC[C@@H]4Nc3cncc(-c4cnn(C)c4)n3)cc2)CC1` [Compound 25f], the IC50 was in the range of 50 to 200 nM.
Still for that read-out and setting: next, `Cc1cccc(NC(=O)c2cccc3c2CC[C@@H]3Nc2cncc(-c3cnn(C)c3)n2)c1` [Compound 26, (S)-1-((6-(1-methyl-1H-pyrazol-4-yl)pyrazin-2-yl)amino)-N-(m-tolyl)-2,3-dihydro-1H-indene-4-carboxamide]: below 50 nM.
Still for that read-out and setting: next, `Cn1cc(-c2cncc(N[C@H]3CCc4c(C(=O)Nc5cccc(C6CC6)c5)cccc43)n2)cn1` [Compound 27a]: below 50 nM; `Cn1cc(-c2cncc(N[C@H]3CCc4c(C(=O)N5CCCCC5)cccc43)n2)cn1` [Compound 27b]: above 500 nM; `Cn1cc(-c2cncc(N[C@H]3CCc4c(C(=O)NC5CCCCC5)cccc43)n2)cn1` [Compound 27c]: below 50 nM.
Consider `CN(C)C(=O)c1cccc2c1CC[C@@H]2Nc1cncc(-c2cnn(C)c2)n1` [Compound 27d], for which the IC50 was above 500 nM.
With `CC(C)NC(=O)c1cccc2c1CC[C@@H]2Nc1cncc(-c2cnn(C)c2)n1` [Compound 27e], the IC50 lay in the range of 50 to 200 nM.
Still for that read-out and setting: next, `Cn1cc(-c2cncc(N[C@H]3CCc4c(C(=O)NC5CCC(F)(F)CC5)cccc43)n2)cn1` [Compound 27f]: below 50 nM; `CN1CCC(NC(=O)c2cccc3c2CC[C@@H]3Nc2cncc(-c3cnn(C)c3)n2)CC1` [Compound 27h]: above 500 nM.
Still for that read-out and setting: next, `Cn1cc(-c2cncc(N[C@H]3CCc4c(C(=O)NN5CC6CCCC6C5)cccc43)n2)cn1` (stereo partly drawn) [Compound 27i]: below 50 nM; `Cn1cc(-c2cncc(N[C@H]3CCc4c(C(=O)NN5CCCCC5)cccc43)n2)cn1` [Compound 27j]: above 500 nM; `Cn1cc(-c2cncc(N[C@H]3CCc4c(C(=O)Nc5cncc(Cl)c5)cccc43)n2)cn1` [Compound 27k]: below 50 nM.
Turning to `Cn1cc(-c2cncc(N[C@H]3CCc4c(C(=O)NC5CCOCC5)cccc43)n2)cn1` [Compound 27l], the IC50 is above 500 nM.
As to `Cn1cc(-c2cncc(N[C@H]3CCc4c(C(=O)NC(C)(C)C(F)(F)F)cccc43)n2)cn1` [Compound 27m], the IC50 is above 500 nM.
Same read-out and setting: next, `Cn1cc(-c2cncc(N[C@H]3CCc4c(C(=O)Nc5ccccc5F)cccc43)n2)cn1` [Compound 27n]: below 50 nM; `COc1cc(NC(=O)c2cccc3c2CC[C@@H]3Nc2cncc(-c3cnn(C)c3)n2)ccc1F` [Compound 27o]: below 50 nM.
On to `Cn1cc(-c2cncc(N[C@H]3CCc4c(NC(=O)c5cccc(CN6CCCCC6)c5)cccc43)c2)cn1` [Compound 28a], for which the IC50 was above 500 nM.
Take `Cn1cc(-c2cncc(N[C@H]3CCc4c(NC(=O)c5cccc(CN6CCCC6)c5)cccc43)c2)cn1` [Compound 28b]: the IC50 was above 500 nM.
For `COC(=O)Nc1cccc2c1CC[C@@H]2Nc1cncc(-c2cnn(C)c2)n1` [Compound 29, methyl(S)-(1-((6-(1-methyl-1H-pyrazol-4-yl)pyrazin-2-yl)amino)-2,3-dihydro-1H-inden-4-yl) carbamate], the IC50 is above 500 nM.
Still for that read-out and setting: next, `Cc1cccc(C(=O)Nc2cccc3c2CC[C@@H]3Nc2cncc(Cl)n2)c1` [Compound 30, (S)—N-(1-((6-chloropyrazin-2-yl)amino)-2,3-dihydro-1H-inden-4-yl)-3-methylbenzamide]: below 50 nM; `Cc1cccc(C(=O)Nc2cccc3c2CC[C@@H]3Nc2cncc(N3CCN(C)CC3)n2)c1` [Compound 31, (S)-3-methyl-N-(1-((6-(4-methylpiperazin-1-yl)pyrazin-2-yl)amino)-2,3-dihydro-1H-inden-4-yl)benzamide]: 200 to 500 nM; `Cc1cccc(C(=O)Nc2cccc3c2CC[C@@H]3Nc2cncc(N(C)CCN(C)C)n2)c1` [Compound 32, (S)—N-(1-((6-((2-(dimethylamino)ethyl)(methyl)amino)pyrazin-2-yl)amino)-2,3-dihydro-1H-inden-4-yl)-3-methylbenzamide]: above 500 nM.
On the same count and under the same terms, next, `Cc1cccc(NC(=O)c2cccc3c2CC[C@@H]3Nc2cncc(Cl)n2)c1` [Compound 33c, (S)-1-((6-chloropyrazin-2-yl)amino)-N-(m-tolyl)-2,3-dihydro-1H-indene-4-carboxamide]: below 50 nM; `Cc1cccc(NC(=O)c2cccc3c2CC[C@@H]3Nc2cncc(N3CCN(C)CC3)n2)c1` [Compound 34, (S)-1-((6-(4-methylpiperazin-1-yl)pyrazin-2-yl)amino)-N-(m-tolyl)-2,3-dihydro-1H-indene-4-carboxamide]: 50 to 200 nM.
Still for that read-out and setting: next, `CC(C)c1csc(Nc2cccc3c2CC[C@@H]3Nc2cncc(-c3cnn(C)c3)n2)n1` [Compound 35, (S)—N^4-(4-isopropylthiazol-2-yl)-N^1-(6-(1-methyl-1H-pyrazol-4-yl)pyrazin-2-yl)-2,3-dihydro-1H-indene-1,4-diamine]: 50 to 200 nM; `Cc1csc(Nc2cccc3c2CC[C@@H]3Nc2cncc(-c3cnn(C)c3)n2)n1` [Compound 36a]: above 500 nM; `Cn1cc(-c2cncc(N[C@H]3CCc4c(Nc5nc(C6CC6)cs5)cccc43)n2)cn1` [Compound 36b]: 50 to 200 nM.
In the case of `Cn1cc(-c2cncc(N[C@H]3CCc4c(Nc5nc(C(C)(C)C)cs5)cccc43)n2)cn1` [Compound 36c], the IC50 is below 50 nM.
The same measure, in the same setting: next, `CC(C)c1cnc(Nc2cccc3c2CC[C@@H]3Nc2cncc(-c3cnn(C)c3)n2)s1` [Compound 37, (S)—N^4-(5-isopropylthiazol-2-yl)-N^1-(6-(1-methyl-1H-pyrazol-4-yl)pyrazin-2-yl)-2,3-dihydro-1H-indene-1,4-diamine]: 50 to 200 nM; `Cn1cc(-c2cncc(N[C@H]3CCc4c(Nc5ccn(C(C)(C)C)n5)cccc43)n2)cn1` [Compound 38, (S)—N^4-(1-(tert-butyl)-1H-pyrazol-3-yl)-N^1-(6-(1-methyl-1H-pyrazol-4-yl)pyrazin-2-yl)-2,3-dihydro-1H-indene-1,4-diamine]: 50 to 200 nM.
Same read-out and setting: next, `Cn1cc(-c2cncc(N[C@H]3CCc4c(Nc5cnn(C(C)(C)C)c5)cccc43)n2)cn1` [Compound 39a]: above 500 nM; `Cc1cncc(Nc2cccc3c2CC[C@@H]3Nc2cncc(-c3cnn(C)c3)n2)c1` [Compound 39b]: above 500 nM.
The same measure, in the same setting: next, `Cc1c(Nc2cccc3c2CC[C@@H]3Nc2cncc(-c3cnn(C)c3)c2)noc1C(C)(C)C` [Compound 40, (S)—N^4-(5-(tert-butyl)-4-methylisoxazol-3-yl)-N^1-(5-(1-methyl-1H-pyrazol-4-yl)pyridin-3-yl)-2,3-dihydro-18-indene-1,4-diamine]: below 50 nM.

The same assay, now with this note: read-out: M-NFS-60cellassay IC50(nM).
For the compound `Cc1cccc(NC(=O)c2cccc3c2CC[C@@H]3Nc2cncc(C3=CCN(C)CC3)n2)c1` [Compound 33, (S)-1-((6-(1-methyl-1,2,3,6-tetrahydropyridin-4-yl)pyrazin-2-yl)amino)-N-(m-tolyl)-2,3-dihydro-1H-indene-4-carboxamide], the IC50 is 50 to 200 nM.
